Patent US11033537B2, “LPT-723 and immune checkpoint inhibitor combinations and methods of treatment” (BIOMED VALLEY DISCOVERIES, INC., priority 2015, dated 2021)
Entries after “also recorded” stand apart in the source; their conditions may differ.

Key:
[1] = system: Colon26 murine colon cancer cells; assay: Prophylactic Colon26 colon cancer model; assay type: in vivo, BALB/c mice; conditions: alone or with antibody
Description: Charles River (CR) BALB/c mice were implanted with Colon26 murine colon cancer cells on Day 1, and treatment was initiated on Day 3 with control (vehicle), anti-CTLA-4 (clone 4F10), anti-PD-1 (clone RMP1-14), anti-CTLA-4/anti-PD-1 combination, LPT-723 (10 mpk, 30 mpk), anti-CTLA-4/LPT-723 (10 mpk, 30 mpk) combination, or anti-PD-1/LPT-723 (10 mpk, 30 mpk) combination. Anti-CTLA-4 was dosed i.p. on Day 8 at a dose of 100 μg/animal and on Days 11, and 14 at a dose of 50 μg/animal. Anti-PD-1 was dosed i.p. twice a week for two weeks starting on Day 3 at a dose of 100 μg/animal. LPT-723 was dosed per os (p.o.) twice a day starting on Day 3.

Pan02 cells = assay: In vitro cell viability assay (CellTiter-Glo), Pan02; assay type: cell-based, murine; conditions: Mus musculus
From the text: No significant changes in body weights were noted.

[2] = system: HCT-116 human colon xenografts; assay: HCT-116 human colorectal cancer xenograft model; assay type: in vivo; conditions: LPT-723 30 mpk p.o. twice a day, BALB/c nude mice
Description: BALB/c nude mice bearing HCT-116 human colon xenografts were treated with control (vehicle) and LPT-723. Treatment was initiated when tumor volume reached approximately 80-120 mm^3. LPT-723 was dosed p.o. twice a day at 30 mpk.

HCT116 cells = assay: In vitro activity on HCT116 cells in culture; assay type: cell-based, human; conditions: up to 30 μM
[3] = Micronucleus assay (flow analysis, 7-day oral toxicity study); assay type: in vivo; conditions: rat blood, Day 8 of 7-day oral study
Description: Prior to necropsy on Day 8, rats in a main study group of a 7-day oral toxicity and toxicokinetic (TK) study were bled from the jugular vein for the evaluation of the flow analysis of micronucleus. […] The procedure used for collection and fixation of blood is summarized below:
Preparation of the Fixative Tubes: Fixative tubes were prepared one day prior to blood collection. Two 15 mL polypropylene centrifuge tubes (VWR no. 21008-103) were required per sample. 2 mL of ultracold fixative-methanol was added to each appropriately labeled tube (Tubes B1 and B2), and caps were replaced. The rack of tubes was placed overnight at approximately −80° C. to allow for sufficient chilling of the fixative.
Preparation of the Anticoagulant/Diluent Vials (prior to blood collection): One vial (2 mL cryovials; VWR no. 66008-728) was required for each sample. 350 μL of anticoagulant/diluent (Prototype Pig-a Mutation Assay Anticoagulant Solution, lot #17716, provided by BioReliance, from Litron) was aseptically aliquoted into each appropriately labeled vial (Tube A). […]
Transferring of Fixed Samples into LTSS: Samples were transferred into LTSS after they had been in the fixative for at least 3 days. […] With a container of ice and a 25 mL pipette ready for aliquoting the buffer solution used below, the following steps were performed as quickly as possible (within approximately 20 seconds). […]

[4] = Monkey cardiovascular (CV) study; assay type: in vivo; conditions: 25 and 40 mg/kg oral gavage, male monkeys, cross-over

Q: What does the source list for Cc1cc(-c2cncc(C(O)C(F)(F)F)c2)nc2c1C(=O)N(c1cnn(CC(F)F)c1)C2(C)C (centres unmarked) [LPT-723]?
A: % TGD ([1]; MR237 10 mg/kg bid): 0%; T-C ([1]; MR237 10 mg/kg bid): −0; TFS ([1]; MR237 10 mg/kg bid): 0; Median TTE ([1]; MR237 10 mg/kg p.o. bid from Day 3 to end): 31.9; % TGD ([1]; MR237 30 mg/kg bid): 5%; T-C ([1]; MR237 30 mg/kg bid): 1.7; TFS ([1]; MR237 30 mg/kg bid): 1; MTV (n), Day 57 ([1]; MR237 30 mg/kg bid, Day 57): 0 (1); Median TTE ([1]; MR237 30 mg/kg p.o. bid from Day 3 to end): 33.7; IC50 (Pan02 cells): 26.6 µM; tumor growth inhibition [2]: 45%; activity in vitro on HCT116 cells in culture (HCT116 cells): no activity; toxicity, micronucleus flow analysis [3]: No toxicity was observed; also recorded: no significant toxicity; toxicological observations [4]: no significant toxicological observations
